Measurements taken from patent US12552783B2, “Modulators of proteolysis and associated methods of use” (Arvinas Operations, Inc., priority 2018, dated 2026).

Molecular target: KRas (Homo sapiens, UniProt P01116, G12C)
Assay: KRas degradation in SW1573 cells by Western blot, normalized to GAPDH (data of Table 14)
Format: cell-based
Settings: SW1573 cells
In short: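 SW1573 cells, homozygous for the KRas G12C mutation and maintained in DMEM with 10% FBS and 1% penicillin-streptomycin, were seeded in 12-well plates, allowed to attach overnight at 37° C. under 5% CO2, then serum-starved for 24 hours before compound exposure. KRas levels were measured by Western blot, normalized to GAPDH, and compared with DMSO controls to give percent degradation, DC50 and Dmax.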

Row | Percent Degradation at Indicated Concentration (μM) (0.03 μM) | Percent Degradation at Indicated Concentration (μM) (0.1 μM) | Percent Degradation at Indicated Concentration (μM) (0.3 μM) | Percent Degradation at Indicated Concentration (μM) (1 μM) | Compound
1 | C (Percent Degradation: C ≤ 35) | C (Percent Degradation: C ≤ 35) | C (Percent Degradation: C ≤ 35) | – | C=CC(=O)N1CCN(c2nc(O[C@H](C)CN3CCC(OCCOCCOCCOCCOc4cc([C@@H](C(=O)N5C[C@H](O)C[C@H]5C(=O)N[C@@H](C)c5ccc(-c6scnc6C)cc5)C(C)C)on4)CC3)nc3c(F)c(-c4cc(O)cc5ccccc45)c(Cl)cc23)CC1 [compound 531, (2S,4R)-1-((2S)-2-(3-(2-(2-(2-(2-((1-((2R)-2-((4-(4-acryloylpiperazin-1-yl)-6-chloro-8-fluoro-7-(3-hydroxynaphthalen-1-yl)quinazolin-2-yl)oxy)propyl)piperidin-4-yl)oxy)ethoxy)ethoxy)ethoxy)ethoxy)isoxazol-5-yl)-3-methylbutanoyl)-4-hydroxy-N-((S)-1-(4-(4-methylthiazol-5-yl)phenyl)ethyl)pyrrolidine-2-carboxamide]
2 | – | C (Percent Degradation: C ≤ 35) | C (Percent Degradation: C ≤ 35) | C (Percent Degradation: C ≤ 35) | C=CC(=O)N1CCN(c2nc(O[C@H](C)CN3CCC(OCCOCCOCCOc4ccc5c(c4)C(=O)N(C4CCC(=O)NC4=O)C5=O)CC3)nc3c(F)c(-c4cc(O)cc5ccccc45)c(Cl)cc23)CC1 (stereo partly drawn) [compound 428, 5-(2-(2-(2-((1-((2R)-2-((4-(4-acryloylpiperazin-1-yl)-6-chloro-8-fluoro-7-(3-hydroxynaphthalen-1-yl)quinazolin-2-yl)oxy)propyl)piperidin-4-yl)oxy)ethoxy)ethoxy)ethoxy)-2-(2,6-dioxopiperidin-3-yl)isoindoline-1,3-dione]
3 | – | C (Percent Degradation: C ≤ 35) | C (Percent Degradation: C ≤ 35) | C (Percent Degradation: C ≤ 35) | C=CC(=O)N1CCN(c2nc(O[C@H](C)CN3CCC(OCCOCCOCCOCCOCCOc4cc(-c5scnc5C)ccc4CNC(=O)[C@@H]4C[C@@H](O)CN4C(=O)[C@H](c4cc(C)no4)C(C)C)CC3)nc3c2CCN(c2cc(O)cc4ccccc24)C3)CC1 [compound 444]
4 | – | C (Percent Degradation: C ≤ 35) | C (Percent Degradation: C ≤ 35) | C (Percent Degradation: C ≤ 35) | C=CC(=O)N1CCN(c2nc(O[C@H](C)CN3CCC(CN4CCN(c5ccc6c(c5)C(=O)N(C5CCC(=O)NC5=O)C6=O)CC4)CC3)nc3c(F)c(-c4cc(O)cc5ccccc45)c(Cl)cc23)CC1 (stereo partly drawn) [compound 431, 5-(4-((1-((2R)-2-((4-(4-acryloylpiperazin-1-yl)-6-chloro-8-fluoro-7-(3-hydroxynaphthalen-1-yl)quinazolin-2-yl)oxy)propyl)piperidin-4-yl)methyl)piperazin-1-yl)-2-(2,6-dioxopiperidin-3-yl)isoindoline-1,3-dione]
5 | – | B (35 < B < 70) | C (Percent Degradation: C ≤ 35) | B (35 < B < 70) | C=CC(=O)N1CCN(c2nc(O[C@H](C)CN3CCC(OCCOCCOc4cc(-c5scnc5C)ccc4CNC(=O)[C@@H]4C[C@@H](O)CN4C(=O)[C@@H](c4cc(C)no4)C(C)C)CC3)nc3c2CCN(c2cc(O)cc4ccccc24)C3)CC1 [compound 438]
6 | – | C (Percent Degradation: C ≤ 35) | C (Percent Degradation: C ≤ 35) | C (Percent Degradation: C ≤ 35) | C=CC(=O)N1CCN(c2nc(O[C@H](C)CN3CCC(OCCNc4cccc5c4C(=O)N(C4CCC(=O)NC4=O)C5=O)CC3)nc3c2CCN(c2cc(O)cc4ccccc24)C3)CC1 (stereo partly drawn) [compound 411, 4-((2-((1-((R)-2-((4-(4-acryloylpiperazin-1-yl)-7-(3-hydroxynaphthalen-1-yl)-5,6,7,8-tetrahydropyrido[3,4-d]pyrimidin-2-yl)oxy)propyl)piperidin-4-yl)oxy)ethyl)amino)-2-(2,6-dioxopiperidin-3-yl)isoindoline-1,3-dione]
